Here are results for three compounds from patent publication US11458152B2, “Use of agarobiose or agarooligosaccharide having anticariogenic activity” (Korea University Research and Business Foundation, priority 2016, dated 2022).

Where only a bound is given, the exact number is not on record here.

The subject of experiment [1] is Streptococcus mutans. The experiment can be described thus: Growth of Streptococcus mutans under single carbon source condition (Example 6). In kind it is cell-based, Streptococcus mutans ATCC 25175. The settings on record: 10 g/L as single carbon source in minimal medium, cultured 14 hours. As for the experimental part: A strain used in the present experiment was Streptococcus mutans ATCC 25175. Streptococcus mutans ATCC 25175 was pre-cultured in a brain-heart infusion (BHI) medium for 8 hours, and was washed twice with a 2 mM potassium phosphate buffer, and then main-cultured in a minimal medium prepared with reference to a previously reported document (Fujiwara et al (1978) Arch Oral Biol. 23, 601-602) at 37° C. The minimal medium contains, in a 50 mM Tris-HCl buffer (pH 7.4), 2 g/L of L-glutamic acid, 0.2 g/L of cysteine hydrochloride, 0.9 g/L of L-leucine, 1 g/L of ammonium chloride, 3.5 g/L of potassium hydrogen phosphate, 1.5 g/L of potassium dihydrogen phosphate, 4.2 g/L of sodium hydrogen carbonate, 1.2 g/L of magnesium sulfate heptahydrate, 0.02 g/L of manganese chloride tetrahydrate, 0.02 g/L of iron sulfate heptahydrate, 0.6 g/L of sodium pyruvate, 1 mg/L of riboflavin, 0.5 mg/L of thiamine hydrochloride, 0.1 mg/L of biotin, 1 mg/L of nicotinic acid, 0.1 mg/L of p-aminobenzoic acid, 0.5 mg/L of calcium pantothenate, and 1 mg/L of pyridoxine hydrochloride. To verify an effect of inhibiting the growth of Streptococcus mutans under a single carbon source condition, Streptococcus mutans were cultured in a minimal medium containing each of 10 g/L of agarobiose, agarooligosaccharides, glucose, xylitol, and neoagarobiose and a carbon source-free minimal medium. They were main-cultured using the method of Example 5 for 14 hours, and a degree of the cell growth was measured by measuring the absorbance of a culture solution at a wavelength of 600 nm every two hours.

The subject of experiment [2] is Streptococcus mutans. The note with it: literature (Trahan L et al); cited from earlier work.
For experiment [3], the system named is Streptococcus mutans. The experiment can be described thus: Growth inhibition of Streptococcus mutans under mixed carbon source condition, absorbance at 600 nm (Example 7). In kind it is cell-based, Streptococcus mutans ATCC 25175. How it is done:
(§1) A strain used in the present experiment was Streptococcus mutans ATCC 25175. Streptococcus mutans ATCC 25175 was pre-cultured in a brain-heart infusion (BHI) medium for 8 hours, and was washed twice with a 2 mM potassium phosphate buffer, and then main-cultured in a minimal medium prepared with reference to a previously reported document (Fujiwara et al (1978) Arch Oral Biol. 23, 601-602) at 37° C. The minimal medium contains, in a 50 mM Tris-HCl buffer (pH 7.4), 2 g/L of L-glutamic acid, 0.2 g/L of cysteine hydrochloride, 0.9 g/L of L-leucine, 1 g/L of ammonium chloride, 3.5 g/L of potassium hydrogen phosphate, 1.5 g/L of potassium dihydrogen phosphate, 4.2 g/L of sodium hydrogen carbonate, 1.2 g/L of magnesium sulfate heptahydrate, 0.02 g/L of manganese chloride tetrahydrate, 0.02 g/L of iron sulfate heptahydrate, 0.6 g/L of sodium pyruvate, 1 mg/L of riboflavin, 0.5 mg/L of thiamine hydrochloride, 0.1 mg/L of biotin, 1 mg/L of nicotinic acid, 0.1 mg/L of p-aminobenzoic acid, 0.5 mg/L of calcium pantothenate, and 1 mg/L of pyridoxine hydrochloride. Streptococcus mutans was cultured, using the method of Example 5, in 200 μl of a minimal medium containing 10 g/L of glucose and agarobiose, agarooligosaccharides, xylitol, or neoagarobiose at various concentrations in a 96-well plate, and growth inhibitory effects thereof were observed by measuring absorbance at a wavelength of 600 nm over time. The treated concentrations of agarobiose, agarooligosaccharides, xylitol, and neoagarobiose were between 0 g/L and 20 g/L.

The subject of experiment [4] is Streptococcus mutans. The experiment can be described thus: Acid production of Streptococcus mutans under mixed carbon source condition, extracellular glucose and lactic acid by HPLC (Example 8). It counts as cell-based, Streptococcus mutans ATCC 25175. How it is done:
as §1, with “hydrochloride.” for “hydrochloride. Streptococcus mutans was cultured, using the method of Example 5, in 200 μl of a minimal medium containing 10 g/L of glucose and agarobiose, agarooligosaccharides, xylitol, or neoagarobiose at various concentrations in a 96-well plate, and growth inhibitory effects thereof were observed by measuring absorbance at a wavelength of 600 nm over time. The treated concentrations of agarobiose, agarooligosaccharides, xylitol, and neoagarobiose were between 0 g/L and 20 g/L.”
To confirm an effect of agarobiose, agarooligosaccharides, xylitol, or neoagarobiose on acid production of Streptococcus mutans, Streptococcus mutans were cultured, using the method of Example 5, in 200 μl of a minimal medium containing 10 g/L of glucose and 0 g/L, 2.5 g/L, 5 g/L, 10 g/L, or 20 g/L of agarobiose, agarooligosaccharides, or neoagarobiose, or 0 g/L, 5 g/L, 10 g/L, or 20 g/L of xylitol in a 96-well plate. After 14 hours, concentrations of extracellular glucose and produced lactic acid were measured by HPLC. A column used for HPLC analysis was Aminex HPX-87H. 0.01 N of sulfuric acid as a mobile phase was flowed at a rate of 0.5 mL/min and 65° C.

Where [5] appears, read: 10 g/L in 10 g/L glucose, 14 hours.
Where [6] appears, read: 20 g/L in 10 g/L glucose, 14 hours.
Setting [7] is: 2.5 g/L in 10 g/L glucose, 14 hours.
[8] abbreviates: mixed carbon source, 10 g/L glucose.

As for `OC[C@@H](O)[C@H](O)[C@@H](O)CO` [xylitol, reference compound], the “growth of Streptococcus mutans” value in the experiment with Streptococcus mutans [1] was “no growth”. In addition, the “concentration needed to inhibit the growth of Streptococcus mutans” value in the experiment with Streptococcus mutans [2] is given as ≥ 10 g/L. In the experiment with Streptococcus mutans [3] (20 g/L in 10 g/L glucose), the “absorbance value at 600 nm after culturing for 14 hours” value is listed as 0.595. In addition, the “decrease of produced lactic acid compared to 0 g/L” value (“decrease of produced lactic acid” for short) with Streptococcus mutans [4] (5 g/L in 10 g/L glucose, 14 hours) came to 30%; with Streptococcus mutans [4] (setting [5]), 35%; in the experiment on Streptococcus mutans [4] (setting [6]) it was 35%. Besides, the “decrease of consumed glucose compared to 0 g/L” value (from here on “decrease of consumed glucose”) in the experiment on Streptococcus mutans [4] (setting [5]) turned out to be 23.98%; with Streptococcus mutans [4] (setting [6]) it was 36.41%.
`OC[C@H]1O[C@@H](O[C@H]2[C@H]3OC[C@@H]2OC(O)[C@H]3O)[C@H](O)[C@@H](O)[C@H]1O` (mixture of isomers) [agarobiose]: the “growth of Streptococcus mutans” value in the experiment on Streptococcus mutans [1] is “no growth”. The “absorbance value after 14 hours of culture” value in the experiment with Streptococcus mutans [3] (2.5 g/L in 10 g/L glucose) is recorded as 0.55. Also, the “degree of inhibition of growth compared with 10 g/L of xylitol” value with Streptococcus mutans [3] (5 g/L in 10 g/L glucose) is “greater”. Besides, in the experiment on Streptococcus mutans [3] (same concentration, 10 g/L glucose), the “effect on inhibiting the growth of Streptococcus mutans compared with xylitol” value is recorded as “greater”. Moreover, in the experiment with Streptococcus mutans [3] (same concentration, after 14 hours of culture, 10 g/L glucose), the “final absorbance value compared with xylitol” value is given as “lower”. In the experiment on Streptococcus mutans [4] (setting [7]), the “concentration of consumed glucose” value is 6.78 g/L, the “concentration of produced lactic acid” value turned out to be 5.65 g/L, the “decrease of consumed glucose” value came to 19% and the “decrease of produced lactic acid” value stood at 32%. In the experiment with Streptococcus mutans [4] (5 g/L in 10 g/L glucose), the “degree of inhibition of acid production compared with 10 g/L of xylitol” value is “greater”. Moreover, in the experiment with Streptococcus mutans [4] (setting [5]), the “amount of consumed glucose” value came to 4.05 g/L, the “amount of produced lactic acid” value was determined as 3.25 g/L, the “decrease of consumed glucose” value is 51.5% and the “decrease of produced lactic acid” value stood at 60%. Besides, in the experiment with Streptococcus mutans [4] (setting [6]), the “decrease of consumed glucose” value turned out to be 58.76% and the “decrease of produced lactic acid” value was found to be 68%.
For the compound `OC[C@H]1OC(O)[C@H](O)[C@@H](O[C@@H]2O[C@H]3CO[C@@H]([C@@H]2O)[C@@H]3O)[C@H]1O` (stereo partly shown) [neoagarobiose, reference compound], the “growth of Streptococcus mutans” value in the experiment on Streptococcus mutans [1] is “no growth”. The “inhibition of the growth of Streptococcus mutans” value in the experiment on Streptococcus mutans [3] (setting [8]) is recorded as “unable to inhibit”. For the same compound, the “final absorbance value compared to 0 g/L” value with Streptococcus mutans [3] (up to 20 g/L in 10 g/L glucose) was “did not exhibit significant differences”. In addition, the “change in the growth of Streptococcus mutans” value in the experiment on Streptococcus mutans [3] (up to 20 g/L, minimal medium containing 10 g/L glucose) is on record as “no significant change”. Moreover, the “inhibition of acid production of Streptococcus mutans” value in the experiment with Streptococcus mutans [4] (setting [8]) was “unable to inhibit”. In the experiment with Streptococcus mutans [4] (up to 20 g/L in 10 g/L glucose), the “amount of consumed glucose compared to 0 g/L” value was “did not exhibit significant differences” and the “amount of produced lactic acid compared to 0 g/L” value was “did not exhibit significant differences”.
